In ChEMBL document CHEMBL5360657, “Discovery of the TLR7/8 Antagonist MHV370 for Treatment of Systemic Autoimmune Diseases” (ACS Med Chem Lett, 2023):
pIC50: −log10 of the molar value.

How the values were obtained:
[1] = Metabolic stability in mouse liver microsomes assessed as intrinsic clearance; type: ADME, Microsome; conditions: read-out: CLH
[2] = target: Voltage-gated inwardly rectifying potassium channel KCNH2 (Homo sapiens, UniProt Q12809); experiment: Displacement of [3H]-dofetilite from human ERG (unknown origin); type: toxicity
[3] = Metabolic stability in rat liver microsomes assessed as intrinsic clearance; type: ADME, Microsome; conditions: read-out: CLH
[4] = Metabolic stability in human liver microsomes assessed as intrinsic clearance; type: ADME, Microsome; conditions: read-out: CLH
[5] = AUC in rat at 1 mg/ml, iv; type: ADME; design: dose 1 mg/ml, route iv; conditions: in vivo
Toll-like receptor 9 = target: T1, Toll-like receptor 9 (Homo sapiens, UniProt Q9NR96); experiment: Antagonist activity at TLR9 in human PBMC cells assessed as reduction in IFN alpha measured after 20 hrs by AlphaLISA assay; type: cell-based
T1 sequence (Q9NR96 whole entry): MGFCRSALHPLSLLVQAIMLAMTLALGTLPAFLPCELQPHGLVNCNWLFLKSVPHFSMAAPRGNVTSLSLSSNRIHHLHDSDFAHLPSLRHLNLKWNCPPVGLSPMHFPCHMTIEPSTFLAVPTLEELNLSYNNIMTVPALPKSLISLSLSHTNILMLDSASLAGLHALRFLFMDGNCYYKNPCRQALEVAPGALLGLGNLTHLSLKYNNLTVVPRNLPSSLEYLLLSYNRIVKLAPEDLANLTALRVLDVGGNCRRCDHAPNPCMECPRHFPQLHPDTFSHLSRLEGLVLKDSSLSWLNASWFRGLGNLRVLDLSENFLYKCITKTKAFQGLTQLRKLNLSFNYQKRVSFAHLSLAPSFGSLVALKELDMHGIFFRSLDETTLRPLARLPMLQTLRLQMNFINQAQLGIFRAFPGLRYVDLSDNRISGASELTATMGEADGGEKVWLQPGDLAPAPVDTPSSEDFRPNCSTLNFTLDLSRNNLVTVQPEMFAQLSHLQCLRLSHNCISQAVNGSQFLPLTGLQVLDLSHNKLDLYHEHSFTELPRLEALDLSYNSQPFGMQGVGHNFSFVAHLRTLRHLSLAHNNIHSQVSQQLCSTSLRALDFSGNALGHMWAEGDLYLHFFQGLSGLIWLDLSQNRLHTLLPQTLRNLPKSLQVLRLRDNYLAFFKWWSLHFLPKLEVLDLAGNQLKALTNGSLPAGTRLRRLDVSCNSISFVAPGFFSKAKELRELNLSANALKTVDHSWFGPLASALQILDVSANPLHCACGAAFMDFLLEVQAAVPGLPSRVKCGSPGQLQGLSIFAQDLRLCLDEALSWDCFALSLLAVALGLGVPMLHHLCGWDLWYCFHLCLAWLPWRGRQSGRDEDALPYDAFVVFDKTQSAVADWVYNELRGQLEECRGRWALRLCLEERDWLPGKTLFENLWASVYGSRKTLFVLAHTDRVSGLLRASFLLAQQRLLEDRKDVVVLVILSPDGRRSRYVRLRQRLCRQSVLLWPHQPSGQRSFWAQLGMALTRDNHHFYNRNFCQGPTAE

[6] = AUC in rat at 1 mg/ml, po; type: ADME; design: dose 1 mg/ml, route po; conditions: in vivo
Cytochrome P450 3A4 [7] = target: T2, Cytochrome P450 3A4 (Homo sapiens, UniProt P08684); experiment: Inhibition of CYP3A4 (unknown origin); type: ADME
Cytochrome P450 3A4 [8] = target: T2, Cytochrome P450 3A4; experiment: Time dependent inhibition of CYP3A4 (unknown origin) assessed as Kobs; type: ADME
Toll-like receptor 8 = target: T3, Toll-like receptor 8 (Homo sapiens, UniProt Q9NR97); experiment: Antagonist activity at TLR8 in human PBMC cells […] assessed as reduction in IL-6 level measured after 20 hrs by AlphaLISA assay; type: cell-based
T3 sequence (Q9NR97 whole entry): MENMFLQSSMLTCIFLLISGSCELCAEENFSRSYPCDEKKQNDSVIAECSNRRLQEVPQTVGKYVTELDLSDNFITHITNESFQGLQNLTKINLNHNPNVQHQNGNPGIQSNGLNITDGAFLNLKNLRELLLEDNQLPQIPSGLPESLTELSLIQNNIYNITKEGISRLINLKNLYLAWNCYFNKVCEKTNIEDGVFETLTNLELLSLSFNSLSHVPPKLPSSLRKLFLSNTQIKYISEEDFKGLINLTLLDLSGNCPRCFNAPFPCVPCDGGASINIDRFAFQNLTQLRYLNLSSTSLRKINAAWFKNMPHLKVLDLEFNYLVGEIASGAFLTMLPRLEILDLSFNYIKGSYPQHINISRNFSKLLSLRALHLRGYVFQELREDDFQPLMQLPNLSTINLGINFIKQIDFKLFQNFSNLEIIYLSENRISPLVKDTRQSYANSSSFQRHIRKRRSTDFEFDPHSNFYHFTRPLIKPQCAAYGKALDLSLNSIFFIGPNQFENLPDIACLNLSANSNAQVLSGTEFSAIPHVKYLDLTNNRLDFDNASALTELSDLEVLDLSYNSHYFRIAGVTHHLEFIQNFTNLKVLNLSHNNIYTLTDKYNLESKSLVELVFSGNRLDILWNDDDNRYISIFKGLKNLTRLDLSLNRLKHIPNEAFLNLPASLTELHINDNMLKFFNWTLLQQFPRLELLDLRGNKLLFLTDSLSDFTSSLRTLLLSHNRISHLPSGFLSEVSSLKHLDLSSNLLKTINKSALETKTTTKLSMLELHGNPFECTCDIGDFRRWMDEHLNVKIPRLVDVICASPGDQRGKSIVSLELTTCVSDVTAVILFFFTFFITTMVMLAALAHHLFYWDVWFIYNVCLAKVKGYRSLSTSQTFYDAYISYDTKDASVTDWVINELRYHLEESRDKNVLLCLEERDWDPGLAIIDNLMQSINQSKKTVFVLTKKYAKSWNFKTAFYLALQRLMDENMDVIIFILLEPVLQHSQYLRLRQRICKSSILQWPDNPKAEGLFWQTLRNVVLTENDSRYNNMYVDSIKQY

[9] = Permeability of the compound by PAMPA; type: ADME
[10] = Cmax in mouse at 1 mg/ml, po; type: ADME; design: dose 1 mg/ml, route po; conditions: in vivo

T2 sequence (P08684 whole entry): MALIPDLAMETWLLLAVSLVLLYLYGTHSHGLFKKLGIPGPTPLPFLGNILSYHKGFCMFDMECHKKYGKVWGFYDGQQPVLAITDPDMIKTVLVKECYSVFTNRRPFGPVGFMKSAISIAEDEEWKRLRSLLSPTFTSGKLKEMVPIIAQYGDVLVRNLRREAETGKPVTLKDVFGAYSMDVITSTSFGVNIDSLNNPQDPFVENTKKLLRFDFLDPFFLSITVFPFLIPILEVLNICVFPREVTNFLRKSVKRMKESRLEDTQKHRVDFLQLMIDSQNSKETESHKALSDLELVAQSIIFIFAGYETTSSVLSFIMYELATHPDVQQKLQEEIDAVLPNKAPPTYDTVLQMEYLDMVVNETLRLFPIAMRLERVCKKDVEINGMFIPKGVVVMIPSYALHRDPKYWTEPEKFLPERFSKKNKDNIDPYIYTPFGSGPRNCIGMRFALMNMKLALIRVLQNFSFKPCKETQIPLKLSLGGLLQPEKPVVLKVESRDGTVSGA
Chain of Voltage-gated inwardly rectifying potassium channel KCNH2 (Q12809 whole entry): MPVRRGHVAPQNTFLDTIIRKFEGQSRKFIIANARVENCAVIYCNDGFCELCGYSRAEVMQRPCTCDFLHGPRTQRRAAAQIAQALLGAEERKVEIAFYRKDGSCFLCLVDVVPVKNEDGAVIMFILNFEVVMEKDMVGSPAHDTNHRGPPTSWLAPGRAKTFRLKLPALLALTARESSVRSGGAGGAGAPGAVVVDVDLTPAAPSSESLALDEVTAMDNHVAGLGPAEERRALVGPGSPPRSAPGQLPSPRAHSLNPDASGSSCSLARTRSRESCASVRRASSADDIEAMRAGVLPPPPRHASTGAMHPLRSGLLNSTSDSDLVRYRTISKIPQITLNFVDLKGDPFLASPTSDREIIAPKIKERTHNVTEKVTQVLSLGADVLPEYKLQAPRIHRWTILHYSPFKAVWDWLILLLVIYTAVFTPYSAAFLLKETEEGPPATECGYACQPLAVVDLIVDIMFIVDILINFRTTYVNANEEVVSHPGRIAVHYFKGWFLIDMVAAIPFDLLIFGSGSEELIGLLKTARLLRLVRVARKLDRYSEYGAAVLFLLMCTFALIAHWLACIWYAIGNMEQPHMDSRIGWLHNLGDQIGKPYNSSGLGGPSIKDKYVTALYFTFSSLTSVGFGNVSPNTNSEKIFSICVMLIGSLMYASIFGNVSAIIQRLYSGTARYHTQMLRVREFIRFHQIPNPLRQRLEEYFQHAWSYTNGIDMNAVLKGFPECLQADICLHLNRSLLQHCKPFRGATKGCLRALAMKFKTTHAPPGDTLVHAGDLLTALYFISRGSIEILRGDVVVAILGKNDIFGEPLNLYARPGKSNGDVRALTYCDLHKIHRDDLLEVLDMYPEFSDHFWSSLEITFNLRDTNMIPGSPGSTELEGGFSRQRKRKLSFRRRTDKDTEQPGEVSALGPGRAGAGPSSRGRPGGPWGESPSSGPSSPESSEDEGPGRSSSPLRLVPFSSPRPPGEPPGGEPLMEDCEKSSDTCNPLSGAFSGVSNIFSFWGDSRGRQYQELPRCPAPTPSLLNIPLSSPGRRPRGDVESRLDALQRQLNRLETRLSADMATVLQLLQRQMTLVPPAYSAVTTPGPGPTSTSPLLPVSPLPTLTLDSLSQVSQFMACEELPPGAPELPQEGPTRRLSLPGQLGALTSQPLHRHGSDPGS

Row | SMILES | microsomal CLint [1] [µL/min/mg] | pIC50 [2] | microsomal CLint [3] [µL/min/mg] | microsomal CLint [4] [µL/min/mg] | AUC [5] [µM·h] | pIC50 (Toll-like receptor 9) | AUC [6] [µM·h] | pIC50 (Cytochrome P450 3A4 [7]) | Kobs (Cytochrome P450 3A4 [8]) [min⁻¹] | pIC50 (Toll-like receptor 8) | log(permeability) [9] | Cmax [10] [nM]
1 | CCNCC(=O)NC12CCC(Cn3nc(C)c4c3CCN(c3cc(C)nc5c3cnn5C)C4)(CC1)CC2 | 96 | < 4.52 | < 15 | 35 | 1.78 | 6.09 | 0.618 | < 4.30 | 0.01 | 7.36 | -5.3 | 515
2 | Cc1cc(N2CCc3c(c(C)nn3CC34CCC(N)(CC3)CC4)C2)c2cnn(C)c2n1 | 15 | 4.54 | 36 | 19 | – | 6.24 | – | < 4.30 | 0.002 | 6.68 | -5.1 | –
3 | Cc1cc(N2CCc3c(c(C)nn3CC34CCC(NC(=O)[C@@H]5COCCN5)(CC3)CC4)C2)c2cnn(C)c2n1 [MHV-370] | 52 | < 4.52 | 17 | 19 | 1.78 | 6.00 | 2.82 | < 4.30 | 0.006 | 7.17 | -5.2 | 1860
